According to US7947307B2, “Methods and compositions for imaging” (Mount Sinai School of Medicine of New York University, priority 2004, dated 2011):
Read-outs that look alike come from different tables or passages of the source.

Key:
[1] = cited from earlier work
[2] = cited from earlier work; remark: listed apart in the source
[3] = cited from earlier work; remark: listed apart in the source
[4] = test system: elicited peritoneal macrophages isolated from apoE-/- mice; assay: Cholesterol efflux assay in cholesterol-loaded elicited peritoneal macrophages; assay type: cell-based, mouse; details: 1.5 μM
Experimental: Cholesterol efflux assays. Human apo A-I was prepared as described before (25). Low density lipoprotein (LDL, 1.019<density<1.063 g/mL) and subfraction 3 of high density lipoprotein (HDL3, 1.125<density<1.21 g/mL) were isolated by sequential ultracentrifugation of human plasma. Lipoproteins were extensively dialyzed against phosphate buffered saline (PBS) and protein content measured with a CBQCA Protein Quantitation Kit (Molecular Probes, Eugene, Oreg.). The quality and purity of the lipoprotein preparations was confirmed by SDS-PAGE by the identification of appropriate apolipoproteins. Acetylated LDL (AcLDL) was prepared according to (26). Dulbeco's Modified Eagle medium (DMEM), L-glutamine, Penicillin-Streptomycin solutions, fetal bovine serum (FBS), and PBS were purchased from the Invitrogen Corporation (Carlsbad, Calif.). […]
For measurement of cholesterol efflux, aliquots of the media were collected at 6 and 18 h, and tritium cpm measured by scintillation counting. […] Free and esterified cholesterol content was measured prior to and after efflux under the various treatment conditions. After extraction of lipids, cells were lysed with 0.2 N NaOH and protein content determined by Lowry assay. Total cholesterol and free cholesterol were determined by using kits from Roche Applied Science. Cholesteryl ester content was determined by subtracting free cholesterol from total cholesterol.

[5] = mouse; cited from earlier work
[6] = concentration 1M (values in parentheses)

| Molecule | Viscosity ([1]; concentration 0.5M) [cP] | Viscosity [1, 6] | Osmolality ([2]; concentration 0.5M) [osmol/kg] | Osmolality [2, 6] | r1, 0.5 T 37° C. [3] [mM⁻¹ s⁻¹] | cholesterol efflux to HDL ([4]; [3H]cholesterol-AcLDL loaded macrophages with F-1394, acceptor HDL3 50 μg/mL) | cholesterol efflux to apoA-I ([4]; [3H]cholesterol-AcLDL loaded macrophages with F-1394, acceptor apoA-I 50 μg/mL) | Viscosity ([1]; concentration 0.01M) [cP] | Osmolality ([2]; concentration 0.01M) [osmol/kg] | t1/2 in the circulation [5] |
| --- | --- | --- | --- | --- | --- | --- | --- | --- | --- | --- |
| O=C([O-])CN1CCN(CC(=O)[O-])CCN([C@H](CO)[C@H](O)CO)CCN(CC(=O)[O-])CC1.[Gd+3] (racemic) [Gadobutrol, Gd-DO3A-butrol] | 1.4 | (3.7) cP | 0.57 | (1.39) osmol/kg | 3.6 | – | – | – | – | – |
| O=C(Nc1ccccc1)c1cc([N+](=O)[O-])ccc1Cl [GW9662] | – | – | – | – | – | did not affect | did not affect | – | – | – |
| CNC[C@H](O)[C@@H](O)[C@H](O)[C@H](O)CO.CNC[C@H](O)[C@@H](O)[C@H](O)[C@H](O)CO.O=C([O-])CN(CCN(CC(=O)[O-])CC(=O)O)CCN(CC(=O)O)C(COCc1ccccc1)C(=O)[O-].[Gd+3] (centres unmarked) [Gadobenate, Gd-BOPTA] | 5.3 | – | 1.97 | – | 4.4 | – | – | – | – | – |
| CNC(=O)CN(CCN(CCN(CC(=O)[O-])CC(=O)NC)CC(=O)[O-])CC(=O)[O-].[Gd+3] [Gadodiamide, Gd-DTPA-BMA] | 1.4 | (3.9) cP | 0.79 | (1.90) osmol/kg | 3.9 | – | – | – | – | – |
| CNC[C@H](O)[C@@H](O)[C@H](O)[C@H](O)CO.CNC[C@H](O)[C@@H](O)[C@H](O)[C@H](O)CO.O=C([O-])CN(CCN(CC(=O)[O-])CC(=O)O)CCN(CC(=O)[O-])CC(=O)O.[Gd+3] [Gadopenetate, Gd-DTPA] | 2.9 | – | 1.96 | – | 3.8 | – | – | – | – | – |
| O=C([O-])CN1CCN(CC(=O)[O-])CCN(CC(=O)[O-])CCN(CC(=O)[O-])CC1.[Gd+3] [Gadoterate, Gd-DOTA] | 2.0 | (11.3) cP | 1.35 | (4.02) osmol/kg | 3.6 | – | – | – | – | – |
| Cc1[nH+]cc(COP(=O)([O-])[O-])c(CN(CCN(CC(=O)[O-])Cc2c(COP(=O)([O-])O)c[nH+]c(C)c2O)CC(=O)[O-])c1O.[Mn].[Na+].[Na+].[Na+] [Mangafodipir, Mn-DPDP] | – | – | – | – | 1.9 | – | – | 0.7 | 0.29 | – |
| Gd-DTPA-BMEA [Gadoversetamide] | 2.0 | – | 1.11 | – | 4.7 | – | – | – | – | – |
| Gd-HPDO3A [Gadoteridol] | 1.3 | (3.9) cP | 0.63 | (1.91) osmol/kg | 3.7 | – | – | – | – | – |
| HDL-apoAI: apolipoprotein AI of HDL | – | – | – | – | – | – | – | – | – | roughly 10 h |
